# Laboratory results published in article PMC10265666, “Lung SPLUNC1 Peptide Derivatives in the Lipid Membrane Headgroup Kill Gram-Negative Planktonic and Biofilm Bacteria” (Biomacromolecules, 2023).
# “And” between values parts separate entries of the source, which are not always exact repeats. Equal values may be shown once. Positions of bridges follow the written chain, without caps; N, C: chain ends. Non-standard residues stand in square brackets, D forms with d. Residues, ends and D or L forms follow the SMILES beside them. *: point of attachment. X1 = CC[C@H](C)CCCCC(=O)*; Dab = NCC[C@H](N)C(=O)O
# Experiments:
# [1] = Circular dichroism secondary structure in G(−)IM ULVs; assay type: physicochemical; details: 10 μM peptide, 15 mM PBS pH 7, 37 °C
# Protocol: Unilamellar vesicles (ULVs) of ∼600 Å diameter were prepared using an Avanti extruder: 200 μL of 20 mg/ml G(−)IM lipid in 15 mM PBS was extruded 21 times through Nucleopore filters of size 500 Å using 0.2 mL Hamilton syringes in the Avanti extruder. The final concentration of G(−)IM lipid in the ULVs was determined gravimetrically to be 15 mg/ml. Concentrated ULVs were added to 3 mL of 10 μM peptide in 15 mM PBS at pH 7 to create lipid/peptide molar ratios between 0:1 and 70:1. The samples remained at room temperature for ∼16 h before the CD measurement. Data were collected in 3 mL quartz cuvettes using a Jasco 1500 CD spectrophotometer at 37 °C in the Center for Nucleic Acids Science and Technology at Carnegie Mellon University. The samples were scanned from 200 to 240 nm 20 times, and the ellipticity (ϵ) results were averaged. Temperature was controlled at 37 °C via a Peltier element and water circulation through the sample compartment. Nitrogen gas was used at a flow rate between 20 and 25 ft^3/h (CFH). The parameters for scanning were: speed 100 nm/min, step size 1.0 nm, response time 1 second, bandwidth 1 nm, and sensitivity of 20 mdeg. OriginPro 2019 (OriginLab, Northampton, MA) was used to carry out a linear least-squares fit of the smoothed ellipticity traces to four secondary structural motifs representing α-helix, β-sheet, β-turn, and random coil.[20] This analysis gives a percentage match of each of the secondary structural motifs to the total sample ellipticity. Data were finally converted to mean residue ellipticity, taking into account the peptide concentration (10 μMolar) and number of amino acids (N), using the equation: MRE = (10^4/N)ϵ deg cm^2/dmol.
# [2] = Circular dichroism secondary structure in Euk33 ULVs; assay type: physicochemical; details: 10 μM peptide, 15 mM PBS pH 7, 37 °C
# [3] = tested on: eukaryotic cells vs bacteria; assay: Therapeutic index (eukaryotic cell kill concentration / bacterial kill concentration); assay type: cell-based
# Protocol: But more important than cytotoxicity is the therapeutic index (TI), which is the concentration at which ≥90% of eukaryotic cells are killed divided by the concentration at which ≥90% of bacteria are killed. For A4-153, this TI value is an estimated ≈ 128 μM/16 μM ≈ 8. TI for A4-157 is an estimated 128 μM/24 μM ≈ 5, and the TI for A4-183 is an estimated 64 μM/20 μM ≈ 3.
# [4] = tested on: Klebsiella pneumoniae, 24 clinical isolates and 1 lab strain; assay type: cell-based; details: for antibacterial efficacy: tested G(−) bacteria (K. pneumoniae)
# Protocol: Minimum inhibitory concentration (MIC, defined as the minimum AMP concentration to prevent bacterial growth) and biofilm data were obtained by UV–vis spectroscopy using a BioTek Epoch 2 microplate reader.
# K. pneumoniae substrains were grown overnight using 50 mL plastic conical tubes on a shaker platform at 37 °C. The following day, serial dilutions of the four SPLUNC1 peptides and LL-37 were tested against these 25 substrains of K. pneumoniae using a 96-well plate. […] Following the addition of the peptides at the tested concentrations from serial dilutions to the K. pneumoniae substrains, the plates were incubated at 37 °C for 16 h. Then, visible spectroscopy at λ = 570 nm was performed to determine the bacterial absorption in each well. Those wells with an optical density reading above a threshold value were deemed resistant to the peptide, while those that were below the threshold value were deemed sensitive to the peptide. The threshold value was determined using Gen5 software with the Di lab Growth Inhibition Assay protocol.
# Average MICs and standard deviations were calculated by first averaging the absorbances as a function of AMP concentration in all of the bacterial strains from four total data sets. Then, the average MICs were determined from the averaged absorbances. The standard deviations of the MICs were calculated from each of the absorbances that were used to calculate the average. Then, the standard deviations were averaged across substrains for the graph. These procedures were used to obtain an average MIC with standard deviation across all 25 substrains for one peptide, in order to compare peptide efficacy. Typically, many more substrains are used to obtain an average MIC, so this average MIC may change if thousands of substrains are compared.
# [5] = G(−)IM/peptide molar ratio 10:1
# [6] = G(−)IM/peptide molar ratio 15:1
# [7] = G(−)IM/peptide molar ratio 20:1
# [8] = G(−)IM/peptide molar ratio 25:1
# [9] = G(−)IM/peptide molar ratio 30:1
# [10] = G(−)IM/peptide molar ratio 40:1
# [11] = G(−)IM/peptide molar ratio 50:1
# [12] = G(−)IM/peptide molar ratio 70:1
compound,measurement,setting,value
CC(C)[C@H](NC(=O)CNC(=O)CNC(=O)[C@@H](NC(=O)[C@H](Cc1c[nH]c2ccccc12)NC(=O)CNC(=O)[C@H](CCCCN)NC(=O)[C@@H](NC(=O)[C@H](CCCCN)NC(=O)[C@H](CCCCN)NC(=O)[C@H](Cc1ccccc1)NC(=O)[C@H](Cc1ccccc1)NC(=O)[C@H](CCCCN)NC(=O)[C@H](CCCCN)NC(=O)[C@@H](N)Cc1ccccc1)C(C)C)C(C)C)C(=O)N[C@@H](Cc1c[nH]c2ccccc12)C(=O)NCC(=O)N[C@@H](CCCCN)C(=O)N[C@H](C(=O)N[C@@H](CCCCN)C(=O)N[C@@H](CO)C(=O)N[C@H](C(=O)N[C@H](C(=O)N[C@@H](CCCCN)C(=O)O)C(C)C)C(C)C)C(C)C (stereo in doubt) [A4-157],Random,[1]; G(−)IM/peptide molar ratio 0:1,61.7%
same,α-helix,[1]; G(−)IM/peptide molar ratio 0:1,4.57%
same,β-sheet,[1]; G(−)IM/peptide molar ratio 0:1,33.6%
same,β-turn,[1]; G(−)IM/peptide molar ratio 0:1,0%
same,Random,[1]; G(−)IM/peptide molar ratio 1:1,61.7%
same,α-helix,[1]; G(−)IM/peptide molar ratio 1:1,6.9%
same,β-sheet,[1]; G(−)IM/peptide molar ratio 1:1,31.4%
same,β-turn,[1]; G(−)IM/peptide molar ratio 1:1,0%
same,Random,[1]; G(−)IM/peptide molar ratio 5:1,59.5%
same,α-helix,[1]; G(−)IM/peptide molar ratio 5:1,15.1%
same,β-sheet,[1]; G(−)IM/peptide molar ratio 5:1,25.4%
same,β-turn,[1]; G(−)IM/peptide molar ratio 5:1,0%
same,Random,[1]; [5],52.6%
same,α-helix,[1]; [5],19.0%
same,β-sheet,[1]; [5],28.3%
same,β-turn,[1]; [5],0.1%
same,Random,[1]; [6],20.1%
same,α-helix,[1]; [6],46.0%
same,β-sheet,[1]; [6],33.9%
same,β-turn,[1]; [6],0%
same,Random,[1]; [7],26.5%
same,α-helix,[1]; [7],49.3%
same,β-sheet,[1]; [7],24.2%
same,β-turn,[1]; [7],0%
same,Random,[1]; [8],8.3%
same,α-helix,[1]; [8],61.0%
same,β-sheet,[1]; [8],28.5%
same,β-turn,[1]; [8],2.2%
same,Random,[1]; [9],8.1%
same,α-helix,[1]; [9],62.1% and 62%
same,β-sheet,[1]; [9],28.7%
same,β-turn,[1]; [9],1.1%
same,Random,[1]; [10],0%
same,α-helix,[1]; [10],59.5%
same,β-sheet,[1]; [10],40.5%
same,β-turn,[1]; [10],0%
same,Random,[1]; [11],1.0%
same,α-helix,[1]; [11],56.4%
same,β-sheet,[1]; [11],33.6%
same,β-turn,[1]; [11],0%
same,Random,[1]; [12],13.2%
same,α-helix,[1]; [12],51.2%
same,β-sheet,[1]; [12],35.6%
same,β-turn,[1]; [12],0%
same,Random,[2]; Euk33/peptide molar ratio 0:1,61.7%
same,α-helix,[2]; Euk33/peptide molar ratio 0:1,4.57%
same,β-sheet,[2]; Euk33/peptide molar ratio 0:1,33.6%
same,β-turn,[2]; Euk33/peptide molar ratio 0:1,0%
same,Random,[2]; Euk33/peptide molar ratio 5:1,64.2%
same,α-helix,[2]; Euk33/peptide molar ratio 5:1,3.3%
same,β-sheet,[2]; Euk33/peptide molar ratio 5:1,32.5%
same,β-turn,[2]; Euk33/peptide molar ratio 5:1,0%
same,Random,[2]; Euk33/peptide molar ratio 10:1,64.4%
same,α-helix,[2]; Euk33/peptide molar ratio 10:1,7.3%
same,β-sheet,[2]; Euk33/peptide molar ratio 10:1,28.3%
same,β-turn,[2]; Euk33/peptide molar ratio 10:1,0%
same,Random,[2]; Euk33/peptide molar ratio 30:1,59.1%
same,α-helix,[2]; Euk33/peptide molar ratio 30:1,10%
same,β-sheet,[2]; Euk33/peptide molar ratio 30:1,30.9%
same,β-turn,[2]; Euk33/peptide molar ratio 30:1,0%
same,Random,[2]; Euk33/peptide molar ratio 70:1,42.5%
same,α-helix,[2]; Euk33/peptide molar ratio 70:1,7.4%
same,β-sheet,[2]; Euk33/peptide molar ratio 70:1,50.1%
same,β-turn,[2]; Euk33/peptide molar ratio 70:1,0%
same,concentration at which ≥90% of bacteria are killed,[3]; denominator of TI,24 µM
same,concentration at which ≥90% of eukaryotic cells are killed (estimated),[3]; numerator of TI,≈ 128 μM
"CC[C@H](C)CCCCC(=O)N[C@@H](CCN)C(=O)N[C@H](C(=O)N[C@@H](CCN)C(=O)N[C@H]1CCNC(=O)[C@H]([C@@H](C)O)NC(=O)[C@H](CCN)NC(=O)[C@H](CCN)NC(=O)[C@H](CC(C)C)NC(=O)[C@@H](CC(C)C)NC(=O)[C@H](CCN)NC1=O)[C@@H](C)O [colistin, reference compound] (X1-[Dab]T[Dab][Dab][Dab][dL]L[Dab][Dab]T; lactam 4-C (inferred); N-terminus assumed)","average MIC, colistin-susceptible substrains only",[4]; 13 colistin-susceptible K. pneumoniae substrains,0.88 µM
same,MIC in the colistin-sensitive substrains,[4]; colistin-sensitive K. pneumoniae substrains,< 2 µM
"GVKKKWKKKLGLTLWLKISGVV [A4-198, version scrambled to α-helical content, with a similar hydrophobicity as A4-153]",average MIC value,"[4]; average over 25 K. pneumoniae substrains, 37 °C, 16 h, OD 570 nm, growth at 32 μM counted as 64 μM",highest MIC value
same,antibacterial efficacy,[4],ineffective
same,Random,[1]; G(−)IM/peptide molar ratio 0:1,35.9%
same,α-helix,[1]; G(−)IM/peptide molar ratio 0:1,2.9%
same,β-sheet,[1]; G(−)IM/peptide molar ratio 0:1,56.7%
same,β-turn,[1]; G(−)IM/peptide molar ratio 0:1,4.5%
same,Random,[1]; G(−)IM/peptide molar ratio 1:1,32.7%
same,α-helix,[1]; G(−)IM/peptide molar ratio 1:1,2.6%
same,β-sheet,[1]; G(−)IM/peptide molar ratio 1:1,55.9%
same,β-turn,[1]; G(−)IM/peptide molar ratio 1:1,8.8%
same,Random,[1]; G(−)IM/peptide molar ratio 5:1,41.0%
same,α-helix,[1]; G(−)IM/peptide molar ratio 5:1,22.0%
same,β-sheet,[1]; G(−)IM/peptide molar ratio 5:1,24.4%
same,β-turn,[1]; G(−)IM/peptide molar ratio 5:1,12.6%
same,Random,[1]; [5],42.11%
same,α-helix,[1]; [5],15.5%
same,β-sheet,[1]; [5],32.0%
same,β-turn,[1]; [5],10.4%
same,Random,[1]; [6],12.1%
same,α-helix,[1]; [6],9.1%
same,β-sheet,[1]; [6],48.1%
same,β-turn,[1]; [6],30.7%
same,Random,[1]; [7],30.7%
same,α-helix,[1]; [7],4.6%
same,β-sheet,[1]; [7],44.5%
same,β-turn,[1]; [7],20.2%
same,Random,[1]; [9],34.9%
same,α-helix,[1]; [9],0.2%
same,β-sheet,[1]; [9],44.5%
same,β-turn,[1]; [9],20.4%
same,Random,[1]; [11],37.6%
same,α-helix,[1]; [11],0.2%
same,β-sheet,[1]; [11],46.4%
same,β-turn,[1]; [11],15.8%
same,Random,[1]; [12],37.1%
same,α-helix,[1]; [12],2.0%
same,β-sheet,[1]; [12],46.2%
same,β-turn,[1]; [12],14.7%
same,Random,[2]; Euk33/peptide molar ratio 0:1,35.9%
same,α-helix,[2]; Euk33/peptide molar ratio 0:1,2.9%
same,β-sheet,[2]; Euk33/peptide molar ratio 0:1,56.7%
same,β-turn,[2]; Euk33/peptide molar ratio 0:1,4.5%
same,Random,[2]; Euk33/peptide molar ratio 5:1,34.7%
same,α-helix,[2]; Euk33/peptide molar ratio 5:1,5.7%
same,β-sheet,[2]; Euk33/peptide molar ratio 5:1,53.6%
same,β-turn,[2]; Euk33/peptide molar ratio 5:1,6.0%
same,Random,[2]; Euk33/peptide molar ratio 10:1,37.0%
same,α-helix,[2]; Euk33/peptide molar ratio 10:1,5.9%
same,β-sheet,[2]; Euk33/peptide molar ratio 10:1,51.9%
same,β-turn,[2]; Euk33/peptide molar ratio 10:1,5.2%
same,Random,[2]; Euk33/peptide molar ratio 30:1,38.7%
same,α-helix,[2]; Euk33/peptide molar ratio 30:1,6.2% and 6%
same,β-sheet,[2]; Euk33/peptide molar ratio 30:1,49.4%
same,β-turn,[2]; Euk33/peptide molar ratio 30:1,5.7%
same,Random,[2]; Euk33/peptide molar ratio 70:1,41.8%
same,α-helix,[2]; Euk33/peptide molar ratio 70:1,10.3%
same,β-sheet,[2]; Euk33/peptide molar ratio 70:1,47.9%
same,β-turn,[2]; Euk33/peptide molar ratio 70:1,0%
"LL-37: the human cathelicidin, natural AMP control [reference compound]",antibacterial efficacy,[4],ineffective
